In PubChem BioAssay (NCI):
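Briefly, cells in 96-well plates were exposed to five compound concentrations for 48 h, and endpoints were estimated by linear interpolation. At the TGI there is no net growth.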

How the values were obtained:
Assay in all cases: NCI tumour cell line growth inhibition, 48 h
MDA-MB-435 = system: MDA-MB-435
HT29 colon = system: HT29 colon
KM12 colon = system: KM12 colon
SK-MEL-2 melanoma = system: SK-MEL-2 melanoma
COLO 205 colon = system: COLO 205 colon
OVCAR-8 ovarian = system: OVCAR-8 ovarian
OVCAR-4 ovarian = system: OVCAR-4 ovarian
EKVX NSCLC = system: EKVX NSCLC
MCF7 breast = system: MCF7 breast
HCC-2998 colon = system: HCC-2998 colon
SNB-19 CNS = system: SNB-19 CNS
LOX IMVI melanoma = system: LOX IMVI melanoma
HCT-15 colon = system: HCT-15 colon
SF-295 CNS = system: SF-295 CNS
HL-60(TB) leukemia = system: HL-60(TB) leukemia
UACC-62 melanoma = system: UACC-62 melanoma
OVCAR-3 ovarian = system: OVCAR-3 ovarian
PC-3 prostate = system: PC-3 prostate
SNB-75 CNS = system: SNB-75 CNS
OVCAR-5 ovarian = system: OVCAR-5 ovarian
CAKI-1 renal = system: CAKI-1 renal
ACHN renal = system: ACHN renal
NCI-H226 lung = system: NCI-H226 lung
T-47D breast = system: T-47D breast
MDA-MB-231 breast = system: MDA-MB-231 breast
A498 renal = system: A498 renal
UACC-257 melanoma = system: UACC-257 melanoma
SN12C renal = system: SN12C renal
K-562 leukemia = system: K-562 leukemia
SR leukemia = system: SR leukemia
NCI/ADR-RES ovarian = system: NCI/ADR-RES ovarian
SF-268 CNS = system: SF-268 CNS
NCI-H460 lung = system: NCI-H460 lung
MDA-N = system: MDA-N
BT-549 breast = system: BT-549 breast
HOP-62 NSCLC = system: HOP-62 NSCLC
SK-MEL-28 melanoma = system: SK-MEL-28 melanoma
SK-MEL-5 melanoma = system: SK-MEL-5 melanoma
HS 578T breast = system: HS 578T breast
TK-10 renal = system: TK-10 renal
DU-145 prostate = system: DU-145 prostate
M14 melanoma = system: M14 melanoma
SW-620 colon = system: SW-620 colon
RXF 393 renal = system: RXF 393 renal
CCRF-CEM leukemia = system: CCRF-CEM leukemia
IGROV1 ovarian = system: IGROV1 ovarian
NCI-H522 lung = system: NCI-H522 lung
HOP-92 NSCLC = system: HOP-92 NSCLC
A549 NSCLC = system: A549 NSCLC
786-0 renal = system: 786-0 renal
NCI-H23 lung = system: NCI-H23 lung
MALME-3M melanoma = system: MALME-3M melanoma
U251 CNS = system: U251 CNS
RPMI-8226 leukemia = system: RPMI-8226 leukemia
HCT-116 colon = system: HCT-116 colon
UO-31 renal = system: UO-31 renal
SK-OV-3 ovarian = system: SK-OV-3 ovarian
SF-539 CNS = system: SF-539 CNS
MOLT-4 leukemia = system: MOLT-4 leukemia

Measured: TGI

O=P(O)(OP(=O)(O)c1ccccc1)c1ccccc1 (tested in a mixture with another compound)
not listed: SF-539 CNS | MOLT-4 leukemia
> 100 µM: all other assays above

O=C(O)/C=N/NC(=S)NC1CCCCC1
not listed: SF-268 CNS | RXF 393 renal
> 100 µM: all other assays above

OC(Cc1cccnc1)(c1ccccc1)c1ccccc1
not listed: SF-539 CNS | MOLT-4 leukemia
> 100 µM: all other assays above
